From patent publication US6277886A (priority 1996, dated 2001)
Where a name gives a salt, the structure may show the parent alone. Read-outs that look alike come from different tables or passages of the source.

Assays:
[1] = tested on: ICR male mice; test: Hypobaric hypoxia model, survival time of mice at 200 mmHg; type: in vivo; conditions: control = 100
Text: The model used is analogous to the one described by M. Nakanishi et al., Life Sci. 13: 467-476 (1973); and by Y'Oshiro et al., J. Med. Chem. 34: 2014-2023 (1991). A group of 4 ICR male mice each weighing 20-25 g were placed in a 2.5 L glass chamber (A) at atmospheric pressure. Chamber A is connected to a 12 L chamber (B) through a valve which is initially […] closed. The air in chamber B was evacuated to a pressure of 100 mmHg. The valve between the two chambers was opened rapidly, whereupon the pressure in chamber A fell within 14 seconds to 200 mmHg. The survival time of the mice in chamber A was determined to a maximum hypobaric exposure of 15 minutes. Effect of drug pretreatment on survival is calculated as the percent of the survivai time of the drug-treated group as compared to saline-injected or vehicle-injected group. Control groups were tested twice, before and after each experiment and consisted of 12 to 16 mice, 4 per group. Each tested group always consisted of 4 mice in order to ensure a constant residual volume of oxygen in all tests. […] The effect of each dose of the test drug was determined in duplicate, using a total of 8 mice, 4 per group. All drugs were administered i.p. one hour prior to hypoxia. Positive reference drugs were sodium pentobarbital at a dose of 40 mg/kg, or diazepam at a dose of 10 mg.kg, given 0.5 hour prior to hypoxia.

[2] = target: MAO-B (Rattus norvegicus, UniProt P19643); test: in vivo; conditions: for activity for inhibition of MAO-B: in words; for ED50: rat
Chain of MAO-B (Rattus norvegicus, UniProt P19643) (P19643 whole entry): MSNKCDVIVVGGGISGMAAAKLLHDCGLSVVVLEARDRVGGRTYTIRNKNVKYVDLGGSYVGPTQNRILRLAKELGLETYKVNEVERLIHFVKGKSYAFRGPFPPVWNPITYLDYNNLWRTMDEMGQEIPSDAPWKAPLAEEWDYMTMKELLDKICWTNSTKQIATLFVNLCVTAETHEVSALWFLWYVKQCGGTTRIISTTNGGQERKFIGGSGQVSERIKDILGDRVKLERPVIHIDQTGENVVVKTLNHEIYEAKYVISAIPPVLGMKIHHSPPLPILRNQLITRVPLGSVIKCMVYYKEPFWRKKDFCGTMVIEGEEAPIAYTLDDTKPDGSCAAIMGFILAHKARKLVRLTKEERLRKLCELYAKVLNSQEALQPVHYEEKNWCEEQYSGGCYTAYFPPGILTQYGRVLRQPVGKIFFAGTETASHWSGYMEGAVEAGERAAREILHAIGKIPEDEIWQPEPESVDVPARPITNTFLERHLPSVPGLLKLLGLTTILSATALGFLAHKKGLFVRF
Protocol: (§1) Rats (male Sprague-Dawley-derived) weighing 250±20 g were treated with one of the enantionmers or the racemic form of PAI by intraperitoneal injection (ip) or oral gavage (po), and decapitated 1h or 2h later respectively. Groups of three rates were used for each dose level of substance, and MAO activity determined in brain and liver using the general technique described in Example 19 of U.S. Pat. No. 5,387,612. The amount of protein in each incubation was determined using the Follin-Lowrymethod, and enzyme activity calculated as nmol of substrate metabolized per hour of incubation for each mg of protein. Activity of MAO in tissues from animals treated with the enantiomers or the racemic form of PAI was expressed as a percentage of the enzyme activity in a group of control animals administered vehicle (water for oral administration, 0.9% saline for ip injection).

[3] = target: MAO-A (Rattus norvegicus, UniProt P21396); test: in vivo; conditions: for ED50: rat, read-out: IC-50 for Inhibition of MAO-A
Chain of MAO-A (P21396 whole entry): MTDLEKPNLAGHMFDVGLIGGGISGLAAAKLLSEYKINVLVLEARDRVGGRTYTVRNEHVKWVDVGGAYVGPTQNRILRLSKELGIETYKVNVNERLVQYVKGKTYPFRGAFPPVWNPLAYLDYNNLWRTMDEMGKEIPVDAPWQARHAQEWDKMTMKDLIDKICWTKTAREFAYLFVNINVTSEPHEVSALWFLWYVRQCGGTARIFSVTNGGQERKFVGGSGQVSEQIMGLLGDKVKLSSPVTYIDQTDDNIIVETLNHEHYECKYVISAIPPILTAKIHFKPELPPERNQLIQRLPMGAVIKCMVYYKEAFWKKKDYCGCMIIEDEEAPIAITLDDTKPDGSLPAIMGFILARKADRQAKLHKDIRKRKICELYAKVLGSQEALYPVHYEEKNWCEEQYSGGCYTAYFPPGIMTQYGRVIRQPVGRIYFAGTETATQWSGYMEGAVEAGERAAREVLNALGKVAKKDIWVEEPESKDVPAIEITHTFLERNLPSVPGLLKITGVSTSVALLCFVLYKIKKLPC
Protocol: as §1

[4] = tested on: MAO-A/MAO-B; conditions: in vitro; cited from earlier work
[5] = tested on: MAO-B; conditions: in vitro; cited from earlier work
[6] = tested on: rat optic nerve; conditions: in words; cited from earlier work
[7] = tested on: male Wistar rats after middle cerebral artery occlusion (MCA-O)
Text: In order to expose the left middle cerebral artery, a cut was made in the temporal muscle. The tip of the coronoid process of mandible was excised as well and removed with a fine rongeur. Craniectomy was made with a dental drill at the junction between the median wall and the roof of the inferotemporal fossa.
The dura matter was opened carefully using a 27 gauge needle. […] Following this, the temporalis muscle was sutured and laid over the craniectomy site. The skin was closed with a running 3-0 silk suture. […] The volume of brain tissue incurring damage following ischemia was determined.

[8] = tested on: rat cerebellum cells; conditions: in words; cited from earlier work
[9] = tested on: reserpine induced ptosis in rats; test: Reserpine-induced ptosis in rats; type: in vivo; conditions: reserpine 5 mg/kg i.p., 0-4 scale, 4 = eyes completely open, saline 0.86
Text: Reserpine-induced ptosis and its reversal test. Reserpine causes depletion of catecholamine stores, especially norepinephrine. This effect in the live animal is manifested among other things, in ptosis. Drugs that can prevent or inhibit reserpine-induced ptosis act either directly as noradrenergic agonists, or indirectly by decreasing or preventing the metabolic elimination of endogenous norepinephrine. MAO inhibitors belong to the latter category.

[10] = tested on: noradrenaline depletion in rodents; conditions: in words; cited from earlier work
[11] = tested on: human subjects; conditions: cited from earlier work
[12] = tested on: nerve cell death; conditions: sub-inhibitory levels; in words; cited from earlier work
[13] = tested on: noradrenaline uptake; conditions: in words; cited from earlier work
[14] = tested on: pressor response to catecholamines in the cat; test: Pressor response to catecholamines in the anesthetized cat before and after S(-)PAI; type: in vivo; conditions: before S(-)PAI
Protocol: Cats were anesthetized with i.v. nembutal 25 mg/kg. Anesthesia was maintained by additional injections of nembutal, 5 mg/kg, as needed. The femoral artery was cannulated and connected to a Statham pressure transducer for blood pressure recordings on a Grass multichannel Polygraph. The femoral vein was cannulated for i.v. injection of drugs.

[15] = 10 mg/kg i.p., one hour prior to hypoxia
[16] = 50 mg/kg i.p., one hour prior to hypoxia
[17] = 100 mg/kg i.p., one hour prior to hypoxia
[18] = po liver, 2 h after oral gavage

## CN1C(=O)CN=C(c2ccccc2)c2cc(Cl)ccc21 [Diazepam]
[1]; 10 mg/kg i.p., 0.5 hour prior to hypoxia
  % protection ± SD relative to control (relative survival time): 430 ± 59%

## CCCC(C)C1(CC)C(=O)NC(=O)NC1=O (stereo not shown) [Pentobarbital]
[1]; 20 mg/kg i.p., 0.5 hour prior to hypoxia
  % protection ± SD relative to control (relative survival time): 325 ± 166%

## C#CCN[C@@H]1CCc2ccccc21 [R(+)PAI mesylate, reference compound]
[1]; [15]
  % protection ± SD relative to control (relative survival time): 116 ± 47%
[1]; [16]
  % protection ± SD relative to control (relative survival time): 410 ± 151%
[1]; [17]
  % protection ± SD relative to control (relative survival time): 358 ± 179%
[2]
  activity for inhibition of MAO-B: selectivity
[3]; [18]
  IC-50 for Inhibition of MAO-A: > 5 mg/kg
[3]; po, 2 h
  ED50: > 5 mg/kg

## C#CCN[C@@H]1CCc2ccccc21 [R(+)PAI, R(+) enantiomer of N-propargyl-1-aminoindan]
[4]
  selectivity for MAO-B than MAO-A: more than 29 times more selective
[5]
  activity as inhibitor of MAO-B relative to S(-)PAI: ~7,000 times more active
[6]
  slowing neuronal degeneration after crushing the rat optic nerve: slowing neuronal degeneration
[7]
  improvement in neurological score severity: ~20%
[8]
  prevention of NMDA induced cell death: active as a "neuroprotective agent"

## C#CCN(C)[C@H](C)Cc1ccccc1 [R(-)Deprenyl]
[9]; 5 mg/kg i.p.
  Mean score of reserpine-induced ptosis: 1.3
[9]; 10 mg/kg i.p.
  Mean score of reserpine-induced ptosis: 3.16
[10]
  neuroprotective activity (percent restoration of noradrenaline after DSP-4): displayed "neuroprotective activity"
[11]; human subjects, daily dose, recommended dose 10 mg
  dose at which cardiovascular function could be compromised: 30 to 40 mg
[11]; human
  safety factor in clinical practice: 3 to 4
[12]
  prevention of nerve cell death: prevent nerve cell death

## C#CCN(C)[C@@H](C)Cc1ccccc1 [S(+) deprenyl]
[10]
  neuroprotective activity (percent restoration of noradrenaline after DSP-4): far lower "neuroprotective activity" in comparison with R(-) deprenyl
[13]
  noradrenaline uptake inhibition compared to R(-) deprenyl: superior noradrenaline uptake inhibitor as compared to R(-) deprenyl

## C#CCN[C@H]1CCc2ccccc21 [S(-)PAI mesylate, S-(-)-N-Propargyl-1-aminoindan mesylate]
[1]; [15]
  % protection ± SD relative to control (relative survival time): 84 ± 47%
[1]; [16]
  % protection ± SD relative to control (relative survival time): 406 ± 247%
[1]; [17]
  % protection ± SD relative to control (relative survival time): 390 ± 197%
[2]
  activity for inhibition of MAO-B: extremely low activity
[2]; ip, 1 h, read-out: IC-50 for Inhibition of MAO-B, ip brain, 1 h after ip injection
  ED50: > 10 mg/kg
[2]; ip, 1 h, read-out: IC-50 for Inhibition of MAO-B, ip liver, 1 h after ip injection
  ED50: > 10 mg/kg
[2]; po, 2 h, read-out: IC-50 for Inhibition of MAO-B, po brain, 2 h after oral gavage
  ED50: > 10 mg/kg
[2]; po, 2 h, read-out: IC-50 for Inhibition of MAO-B, po liver, 2 h after oral gavage
  ED50: > 10 mg/kg
[3]; in words
  activity for inhibition of MAO-A: extremely low activity
[3]; ip liver, 1 h after ip injection
  IC-50 for Inhibition of MAO-A: > 10 mg/kg
[3]; [18]
  IC-50 for Inhibition of MAO-A: > 10 mg/kg
[3]; ip, 1 h
  ED50: > 10 mg/kg
[3]; po, 2 h
  ED50: > 10 mg/kg

## NC[C@H](O)c1ccc(O)c(O)c1 [norepinephrine, reference compound]
[14]; 0.02 μg/kg i.v.
  Δ mean arterial pressure before S(-)PAI: 8 mmHg
[14]; 0.05 μg/kg i.v.
  Δ mean arterial pressure before S(-)PAI: 23 mmHg
[14]; 0.10 μg/kg i.v.
  Δ mean arterial pressure before S(-)PAI: 31 mmHg
[14]; 0.20 μg/kg i.v.
  Δ mean arterial pressure before S(-)PAI: 46 mmHg

## CNC[C@H](O)c1cccc(O)c1 [phenylephrine, reference compound]
[14]; 0.20 μg/kg i.v.
  Δ mean arterial pressure before S(-)PAI: 9 mmHg
[14]; 0.50 μg/kg i.v.
  Δ mean arterial pressure before S(-)PAI: 17 mmHg
[14]; 1.0 μg/kg i.v.
  Δ mean arterial pressure before S(-)PAI: 21 mmHg
[14]; 2.0 μg/kg i.v.
  Δ mean arterial pressure before S(-)PAI: 40 mmHg

## NCCc1ccc(O)cc1 [tyramine, reference compound]
[14]; 2.0 μg/kg i.v.
  Δ mean arterial pressure before S(-)PAI: 11 mmHg
[14]; 5.0 μg/kg i.v.
  Δ mean arterial pressure before S(-)PAI: 19 mmHg
[14]; 10.0 μg/kg i.v.
  Δ mean arterial pressure before S(-)PAI: 26 mmHg
[14]; 20.0 μg/kg i.v.
  Δ mean arterial pressure before S(-)PAI: 42 mmHg
